Numbers after ± are expanded uncertainties.
Conditions: Liquid; for speed of sound: Frequency=3 MHz, Single path-length method; for mass density: Vibrating tube method

C[S+](C)[O-] [dimethyl sulfoxide]
Conditions	mass density [kg/m3]	speed of sound [m/s]
293.15 K, 100 kPa	1100.4 ± 0.9	1502 ± 3
293.15 K, 500 kPa	1100 ± 1	–
293.15 K, 1000 kPa	1101 ± 1	–
293.15 K, 2500 kPa	1102 ± 1	–
293.15 K, 5000 kPa	1103 ± 1	–
293.15 K, 7500 kPa	1104 ± 1	–
293.15 K, 10000 kPa	1106 ± 1	–
293.15 K, 12500 kPa	1107 ± 1	–
293.15 K, 15000 kPa	1108 ± 1	–
293.15 K, 17500 kPa	1110 ± 1	–
293.15 K, 20000 kPa	1111 ± 1	–
293.15 K, 22500 kPa	1112 ± 1	–
293.15 K, 25000 kPa	1114 ± 1	–
293.15 K, 27500 kPa	1115 ± 1	–
293.15 K, 30000 kPa	1116 ± 1	–
293.15 K, 32500 kPa	1117 ± 1	–
293.15 K, 35000 kPa	1119 ± 1	–
293.15 K, 37500 kPa	1120 ± 1	–
298.15 K, 100 kPa	1095.4 ± 0.9	1485 ± 3
298.15 K, 500 kPa	1095 ± 1	–
298.15 K, 1000 kPa	1096 ± 1	–
298.15 K, 2500 kPa	1096 ± 1	–
298.15 K, 5000 kPa	1098 ± 1	–
298.15 K, 7500 kPa	1099 ± 1	–
298.15 K, 10000 kPa	1101 ± 1	–
298.15 K, 12500 kPa	1102 ± 1	–
298.15 K, 15000 kPa	1103 ± 1	–
298.15 K, 17500 kPa	1105 ± 1	–
298.15 K, 20000 kPa	1106 ± 1	–
298.15 K, 22500 kPa	1107 ± 1	–
298.15 K, 25000 kPa	1109 ± 1	–
298.15 K, 27500 kPa	1110 ± 1	–
298.15 K, 30000 kPa	1111 ± 1	–
298.15 K, 32500 kPa	1113 ± 1	–
298.15 K, 35000 kPa	1114 ± 1	–
298.15 K, 37500 kPa	1115 ± 1	–
313.15 K, 100 kPa	1080.3 ± 0.9	1435 ± 3
313.15 K, 500 kPa	1080 ± 1	–
313.15 K, 1000 kPa	1080 ± 1	–
313.15 K, 2500 kPa	1081 ± 1	–
313.15 K, 5000 kPa	1083 ± 1	–
313.15 K, 7500 kPa	1084 ± 1	–
313.15 K, 10000 kPa	1086 ± 1	–
313.15 K, 12500 kPa	1087 ± 1	–
313.15 K, 15000 kPa	1089 ± 1	–
313.15 K, 17500 kPa	1090 ± 1	–
313.15 K, 20000 kPa	1092 ± 1	–
313.15 K, 22500 kPa	1093 ± 1	–
313.15 K, 25000 kPa	1095 ± 1	–
313.15 K, 27500 kPa	1096 ± 1	–
313.15 K, 30000 kPa	1097 ± 1	–
313.15 K, 32500 kPa	1099 ± 1	–
313.15 K, 35000 kPa	1100 ± 1	–
313.15 K, 37500 kPa	1101 ± 1	–
333.15 K, 100 kPa	1060.2 ± 0.9	1368 ± 3
333.15 K, 500 kPa	1060 ± 1	–
333.15 K, 1000 kPa	1060 ± 1	–
333.15 K, 2500 kPa	1061 ± 1	–
333.15 K, 5000 kPa	1063 ± 1	–
333.15 K, 7500 kPa	1065 ± 1	–
333.15 K, 10000 kPa	1066 ± 1	–
333.15 K, 12500 kPa	1068 ± 1	–
333.15 K, 15000 kPa	1070 ± 1	–
333.15 K, 17500 kPa	1071 ± 1	–
333.15 K, 20000 kPa	1073 ± 1	–
333.15 K, 22500 kPa	1074 ± 1	–
333.15 K, 25000 kPa	1076 ± 1	–
333.15 K, 27500 kPa	1077 ± 1	–
333.15 K, 30000 kPa	1079 ± 1	–
333.15 K, 32500 kPa	1080 ± 1	–
333.15 K, 35000 kPa	1082 ± 1	–
333.15 K, 37500 kPa	1083 ± 1	–
353.15 K, 500 kPa	1040 ± 1	–
353.15 K, 1000 kPa	1040 ± 1	–
353.15 K, 2500 kPa	1042 ± 1	–
353.15 K, 5000 kPa	1043 ± 1	–
353.15 K, 7500 kPa	1045 ± 1	–
353.15 K, 10000 kPa	1047 ± 1	–
353.15 K, 12500 kPa	1049 ± 1	–
353.15 K, 15000 kPa	1050 ± 1	–
353.15 K, 17500 kPa	1052 ± 1	–
353.15 K, 20000 kPa	1054 ± 1	–
353.15 K, 22500 kPa	1055 ± 1	–
353.15 K, 25000 kPa	1057 ± 1	–
353.15 K, 27500 kPa	1059 ± 1	–
353.15 K, 30000 kPa	1060 ± 1	–
353.15 K, 32500 kPa	1062 ± 1	–
353.15 K, 35000 kPa	1063 ± 1	–
353.15 K, 37500 kPa	1065 ± 1	–
373.15 K, 500 kPa	1020 ± 1	–
373.15 K, 1000 kPa	1020 ± 1	–
373.15 K, 2500 kPa	1022 ± 1	–
373.15 K, 5000 kPa	1024 ± 1	–
373.15 K, 7500 kPa	1026 ± 1	–
373.15 K, 10000 kPa	1027 ± 1	–
373.15 K, 12500 kPa	1029 ± 1	–
373.15 K, 15000 kPa	1031 ± 1	–
373.15 K, 17500 kPa	1033 ± 1	–
373.15 K, 20000 kPa	1035 ± 1	–
373.15 K, 22500 kPa	1037 ± 1	–
373.15 K, 25000 kPa	1038 ± 1	–
373.15 K, 27500 kPa	1040 ± 1	–
373.15 K, 30000 kPa	1042 ± 1	–
373.15 K, 32500 kPa	1044 ± 1	–
373.15 K, 35000 kPa	1045 ± 1	–
373.15 K, 37500 kPa	1047 ± 1	–
393.15 K, 500 kPa	999 ± 1	–
393.15 K, 1000 kPa	1000 ± 1	–
393.15 K, 2500 kPa	1001 ± 1	–
393.15 K, 5000 kPa	1004 ± 1	–
393.15 K, 7500 kPa	1006 ± 1	–
393.15 K, 10000 kPa	1008 ± 1	–
393.15 K, 12500 kPa	1010 ± 1	–
393.15 K, 15000 kPa	1012 ± 1	–
393.15 K, 17500 kPa	1014 ± 1	–
393.15 K, 20000 kPa	1016 ± 1	–
393.15 K, 22500 kPa	1018 ± 1	–
393.15 K, 25000 kPa	1020 ± 1	–
393.15 K, 27500 kPa	1022 ± 1	–
393.15 K, 30000 kPa	1024 ± 1	–
393.15 K, 32500 kPa	1025 ± 1	–
393.15 K, 35000 kPa	1027 ± 1	–
393.15 K, 37500 kPa	1029 ± 1	–
413.15 K, 500 kPa	979 ± 1	–
413.15 K, 1000 kPa	979 ± 1	–
413.15 K, 2500 kPa	981 ± 1	–
413.15 K, 5000 kPa	983 ± 1	–
413.15 K, 7500 kPa	986 ± 1	–
413.15 K, 10000 kPa	988 ± 1	–
413.15 K, 12500 kPa	990 ± 1	–
413.15 K, 15000 kPa	993 ± 1	–
413.15 K, 17500 kPa	995 ± 1	–
413.15 K, 20000 kPa	997 ± 1	–
413.15 K, 22500 kPa	999 ± 1	–
413.15 K, 25000 kPa	1001 ± 1	–
413.15 K, 27500 kPa	1003 ± 1	–
413.15 K, 30000 kPa	1005 ± 1	–
413.15 K, 32500 kPa	1007 ± 1	–
413.15 K, 35000 kPa	1009 ± 1	–
413.15 K, 37500 kPa	1011 ± 1	–
433.15 K, 500 kPa	958 ± 1	–
433.15 K, 1000 kPa	958 ± 1	–
433.15 K, 2500 kPa	960 ± 1	–
433.15 K, 5000 kPa	963 ± 1	–
433.15 K, 7500 kPa	966 ± 1	–
433.15 K, 10000 kPa	968 ± 1	–
433.15 K, 12500 kPa	971 ± 1	–
433.15 K, 15000 kPa	973 ± 1	–
433.15 K, 17500 kPa	976 ± 1	–
433.15 K, 20000 kPa	978 ± 1	–
433.15 K, 22500 kPa	980 ± 1	–
433.15 K, 25000 kPa	983 ± 1	–
433.15 K, 27500 kPa	985 ± 1	–
433.15 K, 30000 kPa	987 ± 1	–
433.15 K, 32500 kPa	989 ± 1	–
433.15 K, 35000 kPa	991 ± 1	–
433.15 K, 37500 kPa	993 ± 1	–
453.15 K, 500 kPa	936 ± 1	–
453.15 K, 1000 kPa	937 ± 1	–
453.15 K, 2500 kPa	939 ± 1	–
453.15 K, 5000 kPa	942 ± 1	–
453.15 K, 7500 kPa	945 ± 1	–
453.15 K, 10000 kPa	948 ± 1	–
453.15 K, 12500 kPa	951 ± 1	–
453.15 K, 15000 kPa	953 ± 1	–
453.15 K, 17500 kPa	956 ± 1	–
453.15 K, 20000 kPa	959 ± 1	–
453.15 K, 22500 kPa	961 ± 1	–
453.15 K, 25000 kPa	964 ± 1	–
453.15 K, 27500 kPa	966 ± 1	–
453.15 K, 30000 kPa	969 ± 1	–
453.15 K, 32500 kPa	971 ± 1	–
453.15 K, 35000 kPa	973 ± 1	–
453.15 K, 37500 kPa	976 ± 1	–
473.15 K, 500 kPa	914 ± 1	–
473.15 K, 1000 kPa	915 ± 1	–
473.15 K, 2500 kPa	917 ± 1	–
473.15 K, 5000 kPa	921 ± 1	–
473.15 K, 7500 kPa	924 ± 1	–
473.15 K, 10000 kPa	927 ± 1	–
473.15 K, 12500 kPa	930 ± 1	–
473.15 K, 15000 kPa	933 ± 1	–
473.15 K, 17500 kPa	936 ± 1	–
473.15 K, 20000 kPa	939 ± 1	–
473.15 K, 22500 kPa	942 ± 1	–
473.15 K, 25000 kPa	945 ± 1	–
473.15 K, 27500 kPa	948 ± 1	–
473.15 K, 30000 kPa	950 ± 1	–
473.15 K, 32500 kPa	953 ± 1	–
473.15 K, 35000 kPa	955 ± 1	–
473.15 K, 37500 kPa	958 ± 1	–

From the NIST ThermoML archive (doi:10.1021/acs.jced.9b00396)
